Measured values: patent US9193689B2, “3-aryl-5-substituted-isoquinolin-1-one compounds and their therapeutic use” (INSTITUTE OF CANCER RESEARCH: ROYAL CANCER HOSPITAL (THE), priority 2012, dated 2015)
Where two headings read alike, the source gives them in different places.

Assays:
TNKS1 = TNKS1 (Homo sapiens, UniProt O95271); assay: TNKS1/PARP Biochemical Assay (TNKS1)
DLD1 cells = assay: Long-Term Clonogenic Assay (DLD1 cells); type: cell-based
Experimental: Clonogenic Inhibition in DLD1 or HT55 Cells
In order to determine the efficacy of chronic dosing of putative TNKS inhibitors, long term clonogenic or ‘colony formation’ assays were carried out. This included the sparse seeding of cells in a 6-well dish followed by continuous dosing of cells over 12-14 days (depending on relative cell growth). Appropriate cell lines (DLD1 or HT55) were seeded at 500 cells/well in a 6-well dish in DMEM supplemented with FBS. […] Dosages were carried out in triplicate. Cell media containing compound or DMSO only was replenished every 48 hours. Termination of the assay included the fixation of cells with trichlororacetic acid (1 mL, 10% (v/v), Sigma Aldrich, cat. no. T6399) and incubation for 16 hours at 4° C. Fixed cells were then washed with water, allowed to dry and stained with sulforhodamine B solution (sulforhodamine B 0.05% (w/v), Sigma Aldrich cat. no. S1402, acetic acid 1% (v/v), Fisher Scientific, cat. no. A/0400/PB17)) for 12 hours at room temperature. The stain was then removed and the cells washed copiously with aqueous acetic acid (1% v/v) and allowed to dry.
The data was normalised to the DMSO control and was expressed as surviving fraction as a function of inhibitor dose.

[1] = test system: Wnt activity in DLD1-Wnt-Luc cells; assay: Wnt-Luciferase Reporter Assay
[2] = read-out: Wnt IC50, DLD1-Wnt-Luc cells

Row | IC50 (TNKS1) [nM] | IC50 [1, 2] [nM] | IC50 ([1]; read-out: Wnt IC50) [nM] | SMILES | Clonogenic SF50 (DLD1) (DLD1 cells) [µM]
1 | < 50 | – | – | Cc1cccc2c(=O)[nH]c(-c3ccc(CN4CCNCC4C)cc3)cc12 (single isomer, unassigned) [IQ-051-3] | < 2
2 | < 50 | – | – | Cc1cccc2c(=O)[nH]c(-c3ccc(CN4CCNC(C)C4)cc3)cc12 (single isomer, unassigned) [IQ-084-1] | < 2
3 | < 50 | – | – | Cc1cccc2c(=O)[nH]c(-c3ccc(CN4CCNC(C)C4)cc3)cc12 (single isomer, unassigned) [IQ-084-2] | < 2
4 | < 20 | – | – | Cc1cccc2c(=O)[nH]c(-c3ccc(N(C)C)cc3)cc12 [IQ-001] | < 2
5 | < 20 | – | – | CC(=O)N1CCN(c2ccc(-c3cc4c(C)cccc4c(=O)[nH]3)cn2)CC1 [IQ-005] | < 2
6 | < 500 | – | – | CN(C)C1CCN(c2ccc(-c3cc4c(Cl)cccc4c(=O)[nH]3)cn2)C1 (stereo not drawn) [IQ-009] | < 2
7 | < 20 | – | – | CC(=O)N1CCN(c2ccc(-c3cc4c(C)cccc4c(=O)[nH]3)cc2)CC1 [IQ-017] | < 2
8 | < 50 | – | – | CN(C)CCN1CCN(c2ccc(-c3cc4c(Cl)cccc4c(=O)[nH]3)cn2)CC1 [IQ-019] | < 2
9 | < 50 | – | – | Cc1cccc2c(=O)[nH]c(-c3cnc(N4CCN(C)CC4)c(F)c3)cc12 [IQ-021] | < 2
10 | 17 | – | 62 | Cc1cccc2c(=O)[nH]c(-c3cnc(N4CCN(C)CC4)nc3)cc12 [IQ-025, 5-Methyl-3-[2-(4-methyl-piperazin-1-yl)-pyrimidin-5-yl]-2H-isoquinolin-1-one] | –
11 | < 50 | < 5000 | – | CN(C)Cc1ccc(-c2cc3c(Br)cccc3c(=O)[nH]2)cc1 [IQ-033] | –
12 | < 500 | – | – | CN1CCN(Cc2ccc(-c3cc4c(Cl)cccc4c(=O)[nH]3)cc2)CC1 [IQ-043] | < 2
13 | < 500 | < 5000 | – | CN1CCN(Cc2ccc(-c3cc4c(C5CC5)cccc4c(=O)[nH]3)cc2)CC1 [IQ-046] | –
14 | < 50 | – | – | Cc1cccc2c(=O)[nH]c(-c3ccc(CN4CCN(C)CC4)nc3)cc12.O=CO [IQ-057] | < 2
15 | < 50 | – | – | Cc1cccc2c(=O)[nH]c(-c3ccc(CN4CCN(C(=O)NC(C)(C)C)CC4)cc3)cc12 [IQ-068, 4-[4-(5-methyl-1-oxo-1,2-dihydro-isoquinolin-3-yl)-benzyl]-piperazine-1-carboxylic acid tert-butylamide] | < 2
16 | < 50 | < 5000 | – | O=c1[nH]c(-c2ccc(CN3CCNCC3)cc2)cc2c(F)cccc12 [IQ-070] | –
17 | 29 | – | 42 | Cc1cc(F)cc2c(=O)[nH]c(-c3ccc(CN4CCN(C)CC4)cc3)cc12 [IQ-080] | –
18 | < 50 | < 5000 | – | CCc1cccc2c(=O)[nH]c(-c3ccc(CN4CCNCC4)cc3)cc12 [IQ-081] | –
19 | < 20 | < 5000 | – | Cc1cccc2c(=O)[nH]c(-c3ccc(C(=O)N(C)CC4CCNCC4)cc3)cc12 [IQ-093, N-Methyl-4-(5-methyl-1-oxo-1,2-dihydro-isoquinolin-3-yl)-N-piperidin-4-ylmethyl-benzamide] | –
20 | < 50 | < 5000 | – | CN(CC1CCNCC1)C(=O)c1ccc(-c2cc3c(Cl)cccc3c(=O)[nH]2)cc1 [IQ-094] | –
21 | < 500 | < 5000 | – | CN(C)C1CCN(C(=O)c2ccc(-c3cc4c(Cl)cccc4c(=O)[nH]3)cc2)CC1 [IQ-103] | –
22 | < 500 | < 5000 | – | CN(C)CCOc1ccc(-c2cc3c(Cl)cccc3c(=O)[nH]2)cc1 [IQ-128] | –
23 | < 500 | < 5000 | – | CN(C)CCOc1ccc(-c2cc3c(Br)cccc3c(=O)[nH]2)cc1 [IQ-132] | –
24 | < 500 | < 5000 | – | O=c1[nH]c(-c2ccc(OCCN3CCCC3)cc2)cc2c(Cl)cccc12 [IQ-135] | –

Row | IC50 (TNKS1) [nM] | IC50 [1, 2] [nM] | IC50 ([1]; read-out: Wnt IC50) [nM] | SMILES | Clonogenic SF50 (DLD1) (DLD1 cells) [µM]
25 | < 500 | < 5000 | – | O=c1[nH]c(-c2ccc(CN3CCNCC3)cc2)cc2c(Br)cccc12 [IQ-150] | –
26 | 51 | – | 41 | Cc1cccc2c(=O)[nH]c(-c3cnc(N4CCN(C(=O)C5CC5)CC4)nc3)cc12 [IQ-157, 3-[2-(4-Cyclopropanecarbonyl-piperazin-1-yl)-pyrimidin-5-yl]-5-methyl-2H-isoquinolin-1-one] | –
27 | < 50 | < 5000 | – | Cc1cccc2c(=O)[nH]c(-c3ccc(CN4CCC5(CCNC5)C4)nc3)cc12 (stereo not drawn) [IQ-160] | –
28 | < 500 | < 5000 | – | Cc1cccc2c(=O)[nH]c(-c3ccc(C(=O)N4CCOCC4)cc3F)cc12 [IQ-163] | –
29 | < 500 | < 5000 | – | Cc1cccc2c(=O)[nH]c(-c3ccc(C(=O)N4CCN(C)CC4)cc3F)cc12 [IQ-164] | –
30 | < 500 | < 5000 | – | Cc1cccc2c(=O)[nH]c(-c3ccc(C(=O)N4CCN(CC5CC5)CC4)cc3F)cc12 [IQ-165] | –
31 | < 20 | < 5000 | – | Cc1cccc2c(=O)[nH]c(-c3ccc(C(=O)N(CCO)CCO)cc3)cc12 [IQ-191, N,N-Bis-(2-hydroxy-ethyl)-4-(5-methyl-1-oxo-1,2-dihydro-isoquinolin-3-yl)-benzamide] | –
32 | < 50 | < 5000 | – | Cc1cc(F)cc2c(=O)[nH]c(-c3ccc(C(C)C(=O)N4CC(O)C4)cc3)cc12 (stereo not drawn) [IQ-216] | –
33 | < 50 | < 5000 | – | Cc1cccc2c(=O)[nH]c(-c3ccc(C(C)(C)C(=O)N4CC(O)C4)cc3)cc12 [IQ-217] | –
34 | 26 | – | 274 | Cc1cccc2c(=O)[nH]c(-c3ccc(C(=O)N4CCN(C)CC4)nc3)cc12 [IQ-220] | –
35 | < 500 | < 5000 | – | Cc1ccc(F)c2c(=O)[nH]c(-c3ccc(C(=O)N4CCN(C)CC4)nc3)cc12 [IQ-221] | –
36 | 16 | – | 174 | Cc1cc(F)cc2c(=O)[nH]c(-c3ccc(C(=O)N4CCN(C)CC4)nc3)cc12 [IQ-222] | –
37 | 76 | < 5000 | 1340 | Cc1cccc2c(=O)[nH]c(-c3ccc(C(=O)N4CCN(CC5CC5)CC4)cn3)cc12 [IQ-223, 3-[5-(4-Cyclopropylmethyl-piperazine-1-carbonyl)-pyridin-2-yl]-5-methyl-2H-isoquinolin-1-one] | –
38 | < 50 | < 5000 | – | Cc1cccc2c(=O)[nH]c(-c3cnc(C(=O)N4CCN(C)CC4)nc3)cc12 [IQ-224] | –
39 | < 500 | < 5000 | – | Cc1ccc(F)c2c(=O)[nH]c(-c3cnc(C(=O)N4CCN(C)CC4)nc3)cc12 [IQ-225] | –
40 | < 500 | < 5000 | – | C#Cc1cccc2c(=O)[nH]c(-c3ccc(CN4CCNCC4)cc3)cc12 [IQ-230, 5-Ethynyl-3-(4-piperazin-1-ylmethylphenyl)-2H-isoquinolin-1-one] | –
41 | < 500 | < 5000 | – | CN(C)CCOc1ccc(-c2cc3c(C#CCO)cccc3c(=O)[nH]2)cc1 [IQ-232] | –
42 | 33 | – | 825 | CN1CCN(c2ncc(-c3cc4ccccc4c(=O)[nH]3)cn2)CC1 [REF-1, reference compound] | –
43 | 48 | – | 1000 | CN1CCN(Cc2ccc(-c3cc4ccc(F)cc4c(=O)[nH]3)cc2)CC1 [REF-2, reference compound] | –
44 | 24 | – | 742 | CN1CCN(c2ccc(-c3cc4ccccc4c(=O)[nH]3)cn2)CC1 [REF-3, reference compound] | –
45 | 17 | – | > 10000 | CN(C)CCOc1ccc(-c2cc3ccccc3c(=O)[nH]2)cc1 [REF-5, reference compound] | –
46 | 24 | – | 611 | O=C(C1CC1)N1CCN(c2ncc(-c3cc4c(O)cccc4c(=O)[nH]3)cn2)CC1 [REF-6, reference compound] | –
47 | 42 | – | > 10000 | CN1CCN(C(=O)c2ccc(-c3cc4c(O)cccc4c(=O)[nH]3)cn2)CC1 [REF-7, reference compound] | –
48 | 39 | – | 4320 | COc1ccc(-c2cc3c(C)cccc3c(=O)[nH]2)nc1 [REF-8, reference compound] | –

Row | SMILES | IC50 (TNKS1) [nM] | IC50 [1, 2] [nM] | IC50 ([1]; read-out: Wnt IC50) [nM] | Clonogenic SF50 (DLD1) (DLD1 cells) [µM]
49 | Cc1cccc2c(=O)[nH]c(-c3cnc(N4CCNCC4)c(F)c3)cc12 [IQ-023] | < 50 | – | – | < 2
50 | O=c1[nH]c(-c2cnc(N3CCNCC3)c(F)c2)cc2c(Cl)cccc12 [IQ-024] | < 500 | < 5000 | – | –
51 | Cc1cccc2c(=O)[nH]c(-c3ccc(C(C)N4CCN(C)CC4)cc3)cc12 (stereo not drawn) [IQ-048] | < 20 | – | – | < 2
52 | Cc1cccc2c(=O)[nH]c(-c3ccc(CN4CCN(C)C(=O)C4)cc3)cc12 [IQ-054] | < 20 | – | – | < 2
53 | Cc1cccc2c(=O)[nH]c(-c3ccc(CN4CCC(O)CC4)cc3)cc12 [IQ-074, 3-[4-(4-Hydroxy-piperidin-1-ylmethyl)-phenyl]-5-methyl-2H-isoquinolin-1-one] | < 50 | – | – | < 2
54 | Cc1cccc2c(=O)[nH]c(-c3ccc(CN4C[C@@H]5C[C@H]4CN5)cc3)cc12 [IQ-086] | < 20 | – | – | < 2
55 | O=c1[nH]c(-c2ccc(S(=O)(=O)N3CCNCC3)cc2)cc2c(Cl)cccc12 [IQ-124] | < 50 | < 5000 | – | –
